# Earlier results in publication PMC6332596 (Journal of Hematology & Oncology, 2019).
# Parameters: method as in PMID 25933833, PMID 21131552
# Conditions: compared with chiauranib; cited from earlier work
row,Compound,DLTs in phase I trials
1,Nc1ncc(-c2cnn(CCO)c2)c2scc(-c3ccc(NC(=O)Nc4cccc(F)c4)cc3)c12 [Ilorasertib],"more DLTs, such as pancreatic disease and hypertension, fatigue, cholecystitis, and QTc prolonged"
2,Cc1cc(Nc2cc(N3CCN(C)CC3)nc(/C=C/c3ccccc3)n2)n[nH]1 [ENMD-2076],"more DLTs, such as pancreatic disease and hypertension, fatigue, cholecystitis, and QTc prolonged"
